{"source": "patent US20240082200A1", "about": "“4-THIOCARBAMOYLPHENYL 2-(4-OXOPHENYL)-PHENYL PROPANOATE FOR THE TREATMENT OF PAIN ASSOCIATED WITH UROLOGIC CHRONIC PELVIC PAIN SYNDROME” (Antibe Therapeutics Inc., priority 2022, published 2024)", "key": {"gastric mucosa": {"tested_on": "gastric mucosa", "assay": "Assessment of gastric lesions in IC/BPS mice", "assay_type": "in vivo, male C57BL/6 SPF mice", "conditions": "3 h after oral dose, compound of Formula I 77 mg kg^-1 / ketoprofen 50 mg kg^-1 (equimolar)", "description": "Briefly, mice from distinct experimental groups were euthanized by cervical dislocation under isoflurane anesthesia, and the stomach was excised, opened along the smaller curvature, rinsed gently with saline and then photographed with a digital camera (Samsung Galaxy S20, Campinas/SP, Brazil). The hemorrhagic gastric lesion area was measured blindly (mm^2) using computerized planimetry software (ImageJ, Maryland, USA)."}, "[1]": {"tested_on": "surgical incision pain model", "conditions": "mice; cited from earlier work"}, "bladder strips": {"tested_on": "bladder strips", "assay": "Bladder functional assay in vitro (bladder strips from treated CYP-cystitis mice)", "assay_type": "in vivo, male C57BL/6 SPF mice", "conditions": "for reduced contractile response of CYP bladder strips to KCl (80 mM): improvement: bladders taken 24 h after CYP", "description": "The drugs were dissolved in 0.5% CMC at a concentration of 10 ml/kg^−1.\nAfter 24 h, mice with CYP-induced cystitis were euthanized and the bladders were immediately transferred into a petri-dish. […] The bladders were divided into two longitudinal strips and mounted in an isolated organ bath system (Panlab Harvard, Massachussetts, USA) containing Krebs Henseleit solution at 37° C. (pH 7.4, O2/CO2 […] v/v) under a resting tension of 5 mN. Tissues were allowed to stabilize for 1 h, and during this period the bathing solution was replaced every 15 min. Isometric force was recorded using a PowerLab 8/30 Data Acquisition System (Software Chart, version 6.0, ADInstrument, Milford, MA, USA)."}, "periodontitis": {"tested_on": "periodontitis", "conditions": "compared with ketoprofen (parent drug); cited from earlier work"}, "[2]": {"tested_on": "cyclophosphamide (CYP)-induced interstitial cystitis", "assay": "Mechanical allodynia (electronic von Frey) in CYP-induced cystitis mice", "assay_type": "in vivo, male C57BL/6 SPF mice", "conditions": "for reversal of abdominal mechanical allodynia (withdrawal threshold, AUC 21 to 24 h after CYP): 21 h after CYP", "description": "Experiments were conducted with male C57BL/6 SPF mice (6-10 weeks of age) obtained from the animal care facilities at the Faculty of Medicine, University of Sao Paulo, Brazil. Mice were randomly separated into different treatment groups (n=5 to 7 per group). Groups of five or fewer mice were kept in Perspex cages under standard controlled conditions (22° C.; 12/12 h light/dark cycle) with free access to food (Nuvilab CR-1, Quimtia S/A, Brazil) and filtered tap water. The study was performed in agreement with the guidelines from the Brazilian Council for Control of Animal Experimentation (CONCEA) guidelines, consistent with the Animal Welfare Act. All the experimental protocols were approved by the local ethics committee (CEUA—ICB; protocol n ° 2055050819). According to the internal laboratory rules, euthanasia was performed if severe distress related to the test agents developed during the experiment.\nCystitis was induced by a single i.p. injection of cyclophosphamide CYP (300 mg kg^−1; Oliveira et al., 2018), while the control group received an i.p. injection of saline (10 ml kg^−1). […] The drugs were dissolved in 0.5% CMC at a concentration of 10 ml/kg^−1.\nThe mice were individually placed in a clear Perspex testing chamber (11 cm×9.5 cm×18 cm) on an elevated wire grid platform (0.5 cm2 grid) for an adequate acclimatization (˜1 h). Mechanical sensitivity assessment was performed with the aid of an electronic von Frey apparatus (Insight Inc., Ribeiräo Preto, SP, Brazil) with groups of 5-7 mice each, as described previously (Costa et al., 2020). Force-generating pressure was applied to the lower abdomen in the vicinity of the bladder (pelvic region between the urethra and the anus) with a pressure transducer connected to a digital force detector (Insight Ltd, Ribeiräo Preto/SP, Brazil). Retraction of the abdomen (mechanical allodynia) from the probe was considered as a positive response to the stimuli and were recorded in grams (g). […] All mechanical sensitivity testing was performed in a blinded manner. Response threshold data were analyzed via analysis of variance (ANOVA) followed by Tukey's post hoc test. All mice were euthanized with an overdose of isoflurane followed by cervical dislocation."}, "[3]": {"conditions": "in vivo; cited from earlier work"}}, "note": "“Also recorded” adds a separate entry of the source.", "data": [{"compound": "CC(C(=O)Oc1ccc(C(N)=S)cc1)c1ccc(C(=O)c2ccccc2)cc1", "note": "(centres unmarked) [compound of Formula I, 4-thiocarbamoylphenyl 2-(4-oxophenyl)-phenyl propanoate]", "values": [{"measurement": "hemorrhagic gastric lesions (gastric mucosal hemorrhagic injury)", "setting": "gastric mucosa", "result": "did not; also recorded: normal gastric mucosa"}, {"measurement": "efficacy over ketoprofen in surgical incision pain model", "setting": "[1]", "result": "increased efficacy"}, {"measurement": "reduced contractile response of CYP bladder strips to KCl (80 mM): improvement", "setting": "bladder strips; equimolar dose compound of Formula I 15 mg kg^-1 / ketoprofen 10 mg kg^-1 p.o., vs CYP control", "result": "significantly and dose-dependently increased"}, {"measurement": "reduced contractile response of CYP bladder strips to KCl (80 mM): improvement", "setting": "bladder strips; equimolar dose compound of Formula I 46 mg kg^-1 / ketoprofen 30 mg kg^-1 p.o., vs CYP control", "result": "significantly and dose-dependently increased"}, {"measurement": "reduced maximal (Emax) contractile response elicited by carbachol (CCh) in bladder strips of IC/BPS mice: improvement", "setting": "bladder strips; high doses (compound of Formula I 77 mg kg^-1 / ketoprofen 50 mg kg^-1 p.o.)", "result": "significantly increased"}, {"measurement": "reduced contractile response of CYP bladder strips to KCl (80 mM): improvement", "setting": "bladder strips; high doses: compound of Formula I 77 mg kg^-1 / ketoprofen 50 mg kg^-1 p.o.", "result": "neither compound of Formula I (77 mg kg^−1) nor ketoprofen (50 mg kg^−1) significantly improved"}, {"measurement": "potency and effectiveness in periodontitis versus parent drug", "setting": "periodontitis", "result": "more potent and effective"}, {"measurement": "reversal of abdominal mechanical allodynia (withdrawal threshold, AUC 21 to 24 h after CYP)", "setting": "[2]; equimolar dose compound of Formula I 15 mg kg^-1 / ketoprofen 10 mg kg^-1, p.o., vs CYP + CMC 0.5%", "result": "significant dose-dependent differences"}, {"measurement": "reversal of abdominal mechanical allodynia (withdrawal threshold, AUC 21 to 24 h after CYP)", "setting": "[2]; equimolar dose compound of Formula I 46 mg kg^-1 / ketoprofen 30 mg kg^-1, p.o., vs CYP + CMC 0.5%", "result": "significant dose-dependent differences"}, {"measurement": "reversal of abdominal mechanical allodynia (withdrawal threshold, AUC 21 to 24 h after CYP)", "setting": "[2]; equimolar dose compound of Formula I 77 mg kg^-1 / ketoprofen 50 mg kg^-1, p.o., vs CYP + CMC 0.5%", "result": "significant dose-dependent differences"}, {"measurement": "analgesic effect as compared to equimolar ketoprofen (mechanical allodynia AUC)", "setting": "[2]; highest equimolar dose, 77 mg kg^-1 p.o. vs ketoprofen 50 mg kg^-1, P<0.001", "result": "enhanced analgesic effects"}, {"measurement": "anti-hyperalgesic effect on decreased abdominal withdrawal threshold (mechanical allodynia, AUC 21 to 24 h after CYP)", "setting": "[2]; lowest equimolar dose (compound of Formula I 4.6 mg kg^-1 / ketoprofen 3 mg kg^-1), p.o., 21 h after CYP 300 mg kg^-1 i.p., vs CYP + CMC 0.5%", "result": "no an anti-hyperalgesic effect"}, {"measurement": "potency compared with ketoprofen (abdominal hyperalgesic state and bladder contractile response, CYP-induced IC/BPS model)", "setting": "[2]; orally administered as a single dose", "result": "greater than that of ketoprofen"}, {"measurement": "GI safety compared to ketoprofen", "setting": "[3]", "result": "increased GI safety"}]}]}
